Measured values published in patent US9694016B2 (Novartis AG, priority 2013, dated 2017).
Read-outs that look alike come from different tables or passages of the source. One block for each compound: values may come before it.

Biological target: b-Raf (V600E) (Homo sapiens (Human), UniProt P15056, V600E)
Details: read-out: b-Raf IC-50, AlphaScreen
[1] = 60 min pre-incubation, 3 hours reaction
[2] = 60 min pre-incubation, reaction 3 hours at room temperature

Chain of b-Raf (V600E) (P15056 whole entry V600E): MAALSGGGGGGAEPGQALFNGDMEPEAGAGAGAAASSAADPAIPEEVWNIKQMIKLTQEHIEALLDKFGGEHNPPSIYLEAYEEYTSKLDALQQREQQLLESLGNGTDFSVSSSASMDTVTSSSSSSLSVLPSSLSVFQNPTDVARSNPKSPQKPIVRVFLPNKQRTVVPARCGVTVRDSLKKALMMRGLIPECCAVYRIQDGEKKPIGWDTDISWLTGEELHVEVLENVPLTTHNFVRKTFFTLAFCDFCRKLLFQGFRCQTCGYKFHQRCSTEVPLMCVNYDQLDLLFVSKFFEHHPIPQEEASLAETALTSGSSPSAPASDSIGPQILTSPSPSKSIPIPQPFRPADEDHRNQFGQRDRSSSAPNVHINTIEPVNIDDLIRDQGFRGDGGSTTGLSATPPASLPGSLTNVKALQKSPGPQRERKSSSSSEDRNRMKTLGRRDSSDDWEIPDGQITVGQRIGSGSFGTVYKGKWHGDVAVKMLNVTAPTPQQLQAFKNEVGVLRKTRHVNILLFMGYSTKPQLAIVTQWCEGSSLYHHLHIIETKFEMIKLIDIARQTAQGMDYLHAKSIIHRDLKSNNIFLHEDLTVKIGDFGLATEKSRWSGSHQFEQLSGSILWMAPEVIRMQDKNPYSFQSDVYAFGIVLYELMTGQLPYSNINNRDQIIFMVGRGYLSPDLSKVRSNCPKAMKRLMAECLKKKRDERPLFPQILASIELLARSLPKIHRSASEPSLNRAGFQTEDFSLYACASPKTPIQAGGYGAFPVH

- IC50 [2]: 1.35 nM
SMILES: Cc1ncc(NC(=O)c2ccnc(C3CC3)c2)cc1-c1cnc(OC2CC3(COC3)C2)c(N2CCOCC2)c1 [Example 966, N-(6′-(2-oxaspiro[3.3]heptan-6-yloxy)-2-methyl-5′-morpholino-[3,3′-bipyridin]-5-yl)-2-cyclopropylisonicotinamide]

- IC50 [2]: 0.67 nM
SMILES: Cc1ccc(NC(=O)c2ccnc(C(C)(F)F)c2)cc1-c1cc(N2CCOCC2)nc(N2CC(O)C2)c1 [Example 1078, 2-(1,1-difluoroethyl)-N-(3-(2-(3-hydroxyazetidin-1-yl)-6-morpholinopyridin-4-yl)-4-methylphenyl)isonicotinamide]

- IC50 [1]: 1.7 nM
SMILES: Cc1ccc(NC(=O)c2ccnc(C(F)(F)F)c2)cc1-c1cc(N2CCOCC2)nc(N2CC(O)C2)n1 [Example 773, N-(3-(2-(3-hydroxyazetidin-1-yl)-6-morpholinopyrimidin-4-yl)-4-methylphenyl)-2-(trifluoromethyl)isonicotinamide]

- IC50 [1]: 4.4 nM
SMILES: CCNc1nc(-c2cc(NC(=O)c3ccnc(C4(C#N)CC4)c3)cnc2C)cc(N2CCOCC2)n1 [Example 728, 2-(1-cyanocyclopropyl)-N-(5-(2-(ethylamino)-6-morpholinopyrimidin-4-yl)-6-methylpyridin-3-yl)isonicotinamide]

- IC50 [2]: 29.5 nM
SMILES: Cc1ccc(NC(=O)c2cnnc(C(F)(F)F)c2)cc1-c1c(F)c(NCCO)nc(N2CCOCC2)c1F [Example 1015, N-(3-(3,5-difluoro-2-((2-hydroxyethyl)amino)-6-morpholinopyridin-4-yl)-4-methylphenyl)-6-(trifluoromethyl)pyridazine-4-carboxamide]

- IC50 [1]: 0.8 nM
SMILES: CCNc1nc(-c2cc(C(=O)Nc3cccc(C(F)F)c3)ccc2C)cc(N2CCOCC2)n1 [Example 733, N-(3-(difluoromethyl)phenyl)-3-(2-(ethylamino)-6-morpholinopyrimidin-4-yl)-4-methylbenzamide]

- IC50 [1]: 0.8 nM
SMILES: Cc1ncc(NC(=O)c2cccc(C(F)F)c2)cc1-c1cc(N2CCOCC2)n2nccc2n1 [Example 804, 3-(difluoromethyl)-N-(6-methyl-5-(7-morpholinopyrazolo[1,5-a]pyrimidin-5-yl)pyridin-3-yl)benzamide]

- IC50 (Table 2, 3 hours reaction): 99 nM
SMILES: Cc1ccc(C(=O)Nc2ccccn2)cc1-c1cc(N2CCOCC2)c(=O)n(C)c1 [Example 432, 4-methyl-3-(1-methyl-5-morpholino-6-oxo-1,6-dihydropyridin-3-yl)-N-(pyridin-2-yl)benzamide]

- IC50 [2]: 2.99 nM
SMILES: Cc1ccc(NC(=O)c2cnnc(C(F)(F)F)c2)cc1-c1cc(N2CCOCC2)nc(N2CC(C)(O)C2)c1 [Example 1073, N-(3-(2-(3-hydroxy-3-methylazetidin-1-yl)-6-morpholinopyridin-4-yl)-4-methylphenyl)-6-(trifluoromethyl)pyridazine-4-carboxamide]

- IC50 (Table 2, 3 hours reaction): 3.5 nM
SMILES: Cn1cc(-c2cc(NC(=O)c3ccnc(C(F)(F)F)c3)ccc2F)cc(N2CCOCC2)c1=O [Example 418]

- IC50 [1]: 0.9 nM
SMILES: CCOc1nc(-c2cc(NC(=O)c3ccnc(C(C)(F)F)c3)ccc2C)cc(N2CCOCC2)n1 [Example 761, 2-(1,1-difluoroethyl)-N-(3-(2-ethoxy-6-morpholinopyrimidin-4-yl)-4-methylphenyl)isonicotinamide]

- IC50 [1]: 0.7 nM
SMILES: CCOc1nc(-c2cc(NC(=O)c3ccnc(C(F)(F)F)c3)ccc2C)cc(N2CCOCC2)n1 [Example 762, N-(3-(2-ethoxy-6-morpholinopyrimidin-4-yl)-4-methylphenyl)-2-(trifluoromethyl)isonicotinamide]

- IC50 [1]: 0.6 nM
SMILES: Cc1ccc(NC(=O)c2ccnc(C(C)(C)F)c2)cc1-c1cc(N2CCOCC2)c(OC(C)C)nn1 [Example 595, 2-(2-fluoropropan-2-yl)-N-(3-(6-isopropoxy-5-morpholinopyridazin-3-yl)-4-methylphenyl)isonicotinamide]

Second part, the compound before the results:

SMILES: Cc1ncc(NC(=O)c2cccc(C(C)(F)F)c2)cc1-c1cc(N2CCOCC2)c(=O)n(C)c1 [Example 393, 3-(1,1-difluoroethyl)-N-(1′,2-dimethyl-5′-morpholino-6′-oxo-1′,6′-dihydro-[3,3′-bipyridin]-5-yl)benzamide]
- IC50 (Table 2, 3 hours reaction): 4.6 nM

SMILES: Cc1ccc(NC(=O)c2ccnc(C(C)(C)O)c2)cc1-c1cc(N2CCOCC2)c(OC2CCOCC2)nn1 [Example 581, 2-(2-hydroxypropan-2-yl)-N-(4-methyl-3-(5-morpholino-6-((tetrahydro-2H-pyran-4-yl)oxy)pyridazin-3-yl)phenyl)isonicotinamide]
- IC50 [1]: 2.2 nM

SMILES: Cc1ncc(NC(=O)c2cc(C(C)(C)C#N)ccn2)cc1-c1cnc(OCCO)c(N2CCOCC2)c1 [Example 973, 4-(2-cyanopropan-2-yl)-N-(6′-(2-hydroxyethoxy)-2-methyl-5′-morpholino-[3,3′-bipyridin]-5-yl)picolinamide]
- IC50 [2]: 15.8 nM

SMILES: Cc1ccc(NC(=O)c2cccc(C(F)F)c2)cc1-c1cc(N2CCOCC2)n(C)c(=O)c1 [Example 484, 3-(difluoromethyl)-N-(4-methyl-3-(1-methyl-6-morpholino-2-oxo-1,2-dihydropyridin-4-yl)phenyl)benzamide]
- IC50 [1]: 0.4 nM

SMILES: Cc1ccc(NC(=O)c2ccnc(C(C)(F)F)c2)cc1-c1cc(N2CCOCC2)c2nccn2n1 [Example 843, 2-(1,1-difluoroethyl)-N-(4-methyl-3-(8-morpholinoimidazo[1,2-b]pyridazin-6-yl)phenyl)isonicotinamide]
- IC50 [1]: 0.8 nM

SMILES: Cc1ccc(NC(=O)c2cccc(C(F)(F)F)c2)cc1-c1cc(N2CCOCC2)nc(N2CC[C@@H](O)C2=O)c1 [Example 1065, (R)—N-(3-(2-(3-hydroxy-2-oxopyrrolidin-1-yl)-6-morpholinopyridin-4-yl)-4-methylphenyl)-3-(trifluoromethyl)benzamide]
- IC50 [2]: 0.53 nM

SMILES: CCOc1ncc(-c2cc(NC(=O)c3cccc(C(F)F)c3)ccc2C)cc1N1CCOCC1 [Example 231, 3-(difluoromethyl)-N-(3-(6-ethoxy-5-morpholinopyridin-3-yl)-4-methylphenyl)benzamide]
- IC50 (Table 2, 3 hours reaction): 0.4 nM

SMILES: Cc1ccc(NC(=O)c2ccnc(C(C)(C)O)c2)cc1-c1cnc(OC2CCOCC2)c(N2CCOCC2)c1 [Example 277, 2-(2-hydroxypropan-2-yl)-N-(4-methyl-3-(5-morpholino-6-((tetrahydro-2H-pyran-4-yl)oxy)pyridin-3-yl)phenyl)isonicotinamide]
- IC50 (Table 2, 3 hours reaction): 1 nM

SMILES: Cc1ccc(NC(=O)c2ccnc(C(F)(F)F)c2)cc1-c1cc(NCCO)nc(N2CCOCC2)c1F [Example 1008, N-(3-(3-fluoro-6-((2-hydroxyethyl)amino)-2-morpholinopyridin-4-yl)-4-methylphenyl)-2-(trifluoromethyl)isonicotinamide]
- IC50 [2]: 13.3 nM

SMILES: Cc1ncc(NC(=O)c2ccnc(C(C)(C)C#N)c2)cc1-c1cc(N2CCOCC2)c(OC2CCOCC2)nn1 [Example 633, 2-(2-cyanopropan-2-yl)-N-(6-methyl-5-(5-morpholino-6-((tetrahydro-2H-pyran-4-yl)oxy)pyridazin-3-yl)pyridin-3-yl)isonicotinamide]
- IC50 [1]: 7.2 nM

SMILES: COc1nnc(-c2cc(C(=O)Nc3ccnc(C(F)(F)F)c3)ccc2C)cc1N1CCOCC1 [Example 1018]
- IC50 [2]: 1.76 nM

SMILES: Cc1ccc(C(=O)Nc2cccc(C(F)(F)F)c2)cc1-c1cc(N2CCOCC2)nc(N2CC(O)C2)n1 [Example 766, 3-(2-(3-hydroxyazetidin-1-yl)-6-morpholinopyrimidin-4-yl)-4-methyl-N-(3-(trifluoromethyl)phenyl)benzamide]
- IC50 [1]: 1.8 nM

SMILES: Cc1ncc(NC(=O)c2ccnc(C(C)(C)C#N)c2)cc1-c1cnc(N(C)C)c(N2CCOCC2)c1 [Example 265, 2-(2-cyanopropan-2-yl)-N-(6′-(dimethylamino)-2-methyl-5′-morpholino-[3,3′-bipyridin]-5-yl)isonicotinamide]
- IC50 (Table 2, 3 hours reaction): 4.5 nM

SMILES: Cc1ccc(NC(=O)c2ccnc(S(C)(=O)=O)c2)cc1-c1cnc(OC[C@H](C)O)c(N2CCOCC2)c1 [Example 989, (S)—N-(3-(6-(2-hydroxypropoxy)-5-morpholinopyridin-3-yl)-4-methylphenyl)-2-(methylsulfonyl)isonicotinamide]
- IC50 [2]: 1.96 nM

SMILES: Cc1ccc(NC(=O)c2ccnc(C3COC3)c2)cc1-c1cc(N2CCOCC2)n(C)c(=O)c1 [Example 478, N-(4-methyl-3-(1-methyl-6-morpholino-2-oxo-1,2-dihydropyridin-4-yl)phenyl)-2-(oxetan-3-yl)isonicotinamide]
- IC50 [1]: 2.5 nM

SMILES: O=C(Nc1c[nH]c(=O)c(-c2ccnc(N3CCOCC3)c2)c1)c1cccc(C(F)F)c1 [Example 1174, 3-(difluoromethyl)-N-(2′-morpholino-2-oxo-1,2-dihydro-[3,4′-bipyridin]-5-yl)benzamide]
- IC50 [2]: 25000 nM

SMILES: Cc1ccc(NC(=O)c2cc(C(F)(F)F)nn2C)cc1-c1cc(N2CCOCC2)c(=O)n(C)c1 [Example 369, 1-methyl-N-(4-methyl-3-(1-methyl-5-morpholino-6-oxo-1,6-dihydropyridin-3-yl)phenyl)-3-(trifluoromethyl)-1H-pyrazole-5-carboxamide]
- IC50 (Table 2, 3 hours reaction): 53.1 nM

SMILES: Cn1c(N2CCOCC2)cc(-c2cc(NC(=O)c3ccnc(C(C)(F)F)c3)cnc2Cl)cc1=O [Example 513, N-(2-chloro-1′-methyl-6′-morpholino-2′-oxo-1′,2′-dihydro-[3,4′-bipyridin]-5-yl)-2-(1,1-difluoroethyl)isonicotinamide]
- IC50 [1]: 2.4 nM

SMILES: COc1ncc(-c2cc(NC(=O)c3ccnc(C(C)(F)F)c3)cnc2Cl)cc1N1CCOCC1 [Example 261, N-(2-chloro-6′-methoxy-5′-morpholino-[3,3′-bipyridin]-5-yl)-2-(1,1-difluoroethyl)isonicotinamide]
- IC50 (Table 2, 3 hours reaction): 1.8 nM

SMILES: CCNc1nc(-c2cc(NC(=O)c3cccc(-c4nnco4)c3)ccc2C)cc(N2CCOCC2)n1 [Example 699, N-(3-(2-(ethylamino)-6-morpholinopyrimidin-4-yl)-4-methylphenyl)-3-(1,3,4-oxadiazol-2-yl)benzamide]
- IC50 [1]: 1.7 nM

SMILES: CCNc1nc(-c2cc(NC(=O)c3ccnc(C(C)(C)C)c3)ccc2C)cc(N2CCOCC2)n1 [Example 696, 2-(tert-butyl)-N-(3-(2-(ethylamino)-6-morpholinopyrimidin-4-yl)-4-methylphenyl)isonicotinamide]
- IC50 [1]: 2.4 nM
